# Results taken from ChEMBL document CHEMBL3822409, “Synthesis and antitubercular activity of new 1,3,4-oxadiazoles bearing pyridyl and thiazolyl scaffolds” (Bioorg Med Chem Lett, 2016).
# Legend:
# [1] = Selectivity index, ratio of CC50 for human THP1 cells to MIC for dormant stage of Mycobacterium bovis BCG ATCC 35734; format: toxicity, cell-based, THP-1; settings: read-out: Selectivity Index
# [2] = Cytotoxicity against human HCT116 cells by MTT assay; format: cell-based, HCT-116
# [3] = Selectivity index, ratio of CC50 for human HeLa cells to MIC for active stage of Mycobacterium bovis BCG ATCC 35734; format: toxicity, cell-based; settings: read-out: Selectivity Index
# [4] = Cytotoxicity against human HeLa cells by MTT assay; format: cell-based
# [5] = tested on: Mycobacterium tuberculosis; experiment: Antimycobacterial activity against active stage of Mycobacterium tuberculosis H37Ra ATCC 25177 measured on day 8 by XTT reduction menadione assay; format: functional, organism-based; settings: H37Ra ATCC 25177, 192 h
# [6] = Selectivity index, ratio of CC50 for human THP1 cells to MIC for active stage of Mycobacterium bovis BCG ATCC 35734; format: toxicity, cell-based, THP-1; settings: read-out: Selectivity Index
# [7] = Selectivity index, ratio of CC50 for human HeLa cells to MIC for dormant stage of Mycobacterium bovis BCG ATCC 35734; format: toxicity, cell-based; settings: read-out: Selectivity Index
# [8] = Selectivity index, ratio of CC50 for human HCT116 cells to MIC for dormant stage of Mycobacterium bovis BCG ATCC 35734; format: toxicity, cell-based, HCT-116; settings: read-out: Selectivity Index
# [9] = Selectivity index, ratio of CC50 for human PANC1 cells to MIC for dormant stage of Mycobacterium bovis BCG ATCC 35734; format: toxicity, cell-based, PANC-1; settings: read-out: Selectivity Index
# [10] = Selectivity index, ratio of CC50 for human HCT116 cells to MIC for active stage of Mycobacterium bovis BCG ATCC 35734; format: toxicity, cell-based, HCT-116; settings: read-out: Selectivity Index
# [11] = tested on: Mycobacterium tuberculosis; experiment: Antimycobacterial activity against dormant stage of Mycobacterium tuberculosis H37Ra ATCC 25177 measured on day 12 by XTT reduction menadione assay; format: functional, organism-based; settings: H37Ra ATCC 25177, 288 h
# [12] = Cytotoxicity against human THP1 cells by MTT assay; format: cell-based, THP-1
# [13] = Cytotoxicity against human PANC1 cells by MTT assay; format: cell-based, PANC-1
# [14] = Selectivity index, ratio of CC50 for human PANC1 cells to MIC for active stage of Mycobacterium bovis BCG ATCC 35734; format: toxicity, cell-based, PANC-1; settings: read-out: Selectivity Index
Compound,selectivity ratio [1],CC50 [2] [µg/mL],selectivity ratio [3],CC50 [4] [µg/mL],IC50 [5] [µg/mL],MIC [5] [µg/mL],selectivity ratio [6],selectivity ratio [7],selectivity ratio [8],selectivity ratio [9],selectivity ratio [10],IC50 [11] [µg/mL],MIC [11] [µg/mL],CC50 [12] [µg/mL],CC50 [13] [µg/mL],selectivity ratio [14]
Cc1nc(-c2cccnc2)sc1-c1nnc(-c2ccccc2)o1,3,> 100,3,> 100,> 30,> 30,3,3,3,3,3,> 30,> 30,> 100,> 100,3
Cc1nc(-c2cccnc2)sc1-c1nnc(-c2ccc(O)cc2)o1,3,> 100,3,> 100,> 30,> 30,3,3,3,3,3,> 30,> 30,> 100,> 100,3
Cc1nc(-c2cccnc2)sc1-c1nnc(-c2ccc([N+](=O)[O-])cc2)o1,3,> 100,3,> 100,> 30,> 30,3,3,3,3,3,> 30,> 30,> 100,> 100,3
Cc1nc(-c2cccnc2)sc1-c1nnc(-c2cccc(Cl)c2Cl)o1,3,> 100,3,> 100,> 30,> 30,3,3,3,3,3,> 30,> 30,> 100,> 100,3
COc1ccccc1-c1nnc(-c2sc(-c3cccnc3)nc2C)o1,25,> 100,38,> 100,> 30,> 30,38,25,25,25,38,> 30,> 30,> 100,> 100,38
Cc1ccc(-c2nnc(-c3sc(-c4cccnc4)nc3C)o2)cc1,3,> 100,3,> 100,> 30,> 30,3,3,3,3,3,> 30,> 30,> 100,> 100,3
Cc1nc(-c2cccnc2)sc1-c1nnc(-c2ccncc2)o1,2,> 100,2,> 100,> 30,> 30,2,2,2,2,2,> 30,> 30,> 100,> 100,2
Cc1ccccc1-c1nnc(-c2sc(-c3cccnc3)nc2C)o1,20,> 100,17,> 100,> 30,> 30,17,20,20,20,17,> 30,> 30,> 100,> 100,17
Cc1nc(-c2cccnc2)sc1-c1nnc(-c2ccccc2Cl)o1,21,> 100,19,> 100,> 30,> 30,19,21,21,21,19,> 30,> 30,> 100,> 100,19
Cc1cccc(-c2nnc(-c3sc(-c4cccnc4)nc3C)o2)c1,3,> 100,3,> 100,> 30,> 30,3,3,3,3,3,> 30,> 30,> 100,> 100,3
Cc1nc(-c2cccnc2)sc1-c1nnc(-c2ccc(Br)cc2)o1,3,> 100,3,> 100,> 30,> 30,3,3,3,3,3,> 30,> 30,> 100,> 100,3
Cc1nc(-c2cccnc2)sc1-c1nnc(Cc2ccccc2)o1,10,> 100,9,> 100,> 30,> 30,9,10,10,10,9,> 30,> 30,> 100,> 100,9
Cc1nc(-c2cccnc2)sc1-c1nnc(-c2cccnc2)o1,1,> 100,2,> 100,> 30,> 30,2,1,1,1,2,> 30,> 30,> 100,> 100,2
Cc1nc(-c2cccnc2)sc1-c1nnc(-c2ccccc2[N+](=O)[O-])o1,17,> 100,39,> 100,> 30,> 30,39,17,17,17,39,> 30,> 30,> 100,> 100,39
Cc1nc(-c2cccnc2)sc1-c1nnc(-c2ccc(Cl)cc2)o1,3,> 100,3,> 100,> 30,> 30,3,3,3,3,3,> 30,> 30,> 100,> 100,3
CC(=O)O[C@H]1C(=O)[C@@]2(C)[C@H]([C@H](OC(=O)c3ccccc3)[C@]3(O)C[C@H](OC(=O)[C@H](O)[C@@H](NC(=O)c4ccccc4)c4ccccc4)C(C)=C1C3(C)C)[C@]1(OC(C)=O)CO[C@@H]1C[C@@H]2O [PACLITAXEL],–,1.85,–,0.0048,–,–,–,–,–,–,–,–,–,0.137,0.128,–
CO[C@H]1/C=C/O[C@@]2(C)Oc3c(C)c(O)c4c(O)c(c(/C=N/N5CCN(C)CC5)c(O)c4c3C2=O)NC(=O)/C(C)=C\C=C\[C@H](C)[C@H](O)[C@@H](C)[C@@H](O)[C@@H](C)[C@H](OC(C)=O)[C@@H]1C [RIFAMPIN],714,> 100,1250,> 100,–,0.02,1250,714,714,714,1250,0.0024,0.03,> 100,> 100,1250
